Measured values published in US10280198B2, “Therapeutic agents for reducing parathyroid hormone levels” (KAI PHARMACEUTICALS, INC., priority 2009, dated 2019).
Read-outs that look alike come from different tables or passages of the source. Square brackets hold non-standard residues; d marks the D form. Peptide text beside a SMILES is read from it.

Tests used:
[1] = biological target: T1, human calcium-sensing receptor (CaSR) (Homo sapiens, UniProt P41180); test: In vitro cell assay in HEK-293 expressing the human calcium-sensing receptor (IP1 production); assay type: cell-based
T1 construct: expressed in transfected cells; host or cells: HEK 293T cells, transiently transfected (lipofectamine 2000); in some cases HEK293 cells stably transfected
T1 sequence (P41180 20-1078): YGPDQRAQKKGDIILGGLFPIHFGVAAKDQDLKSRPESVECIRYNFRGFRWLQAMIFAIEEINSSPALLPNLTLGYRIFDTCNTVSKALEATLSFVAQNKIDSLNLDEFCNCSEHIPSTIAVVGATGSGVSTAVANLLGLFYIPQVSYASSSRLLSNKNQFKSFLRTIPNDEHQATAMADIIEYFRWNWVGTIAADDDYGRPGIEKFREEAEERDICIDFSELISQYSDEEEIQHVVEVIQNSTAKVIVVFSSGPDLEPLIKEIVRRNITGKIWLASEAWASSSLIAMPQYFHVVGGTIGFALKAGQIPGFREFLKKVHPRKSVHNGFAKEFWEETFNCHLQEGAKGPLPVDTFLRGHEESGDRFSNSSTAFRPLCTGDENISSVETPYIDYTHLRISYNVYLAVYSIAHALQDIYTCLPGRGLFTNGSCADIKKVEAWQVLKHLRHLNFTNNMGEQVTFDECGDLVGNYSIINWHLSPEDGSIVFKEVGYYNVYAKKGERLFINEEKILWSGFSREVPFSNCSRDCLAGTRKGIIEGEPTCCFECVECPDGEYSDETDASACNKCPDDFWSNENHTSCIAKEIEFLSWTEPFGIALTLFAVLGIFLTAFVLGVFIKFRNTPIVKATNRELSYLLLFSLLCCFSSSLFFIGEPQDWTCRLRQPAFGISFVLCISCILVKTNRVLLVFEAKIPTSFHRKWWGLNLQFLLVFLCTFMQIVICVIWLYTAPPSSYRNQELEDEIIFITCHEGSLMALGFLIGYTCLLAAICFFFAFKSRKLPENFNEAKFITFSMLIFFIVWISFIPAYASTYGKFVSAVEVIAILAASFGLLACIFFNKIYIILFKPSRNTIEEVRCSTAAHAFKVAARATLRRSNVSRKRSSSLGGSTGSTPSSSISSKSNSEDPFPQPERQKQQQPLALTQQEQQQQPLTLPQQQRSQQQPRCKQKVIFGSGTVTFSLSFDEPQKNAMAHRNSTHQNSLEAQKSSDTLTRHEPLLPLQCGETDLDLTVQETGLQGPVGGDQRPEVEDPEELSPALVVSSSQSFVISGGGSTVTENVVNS
Description: The activity of a variety of peptides and conjugates was tested against the human CaSR. These studies were conducted by measuring IP1 production in HEK293 cells that express the human CaSR. Each peptide was tested in eight different concentrations, in duplicates, to establish a dose response curve. Curve fitting was performed using GraphPad Prism. In Table 5, and throughout the specification, residues provided in capital letters are L-amino acids, while lower case letters indicate D-amino acids. “Ac” indicates an acetyl capping group, “NH2” indicates an amide capping group, “Ac-bAla” is an acetylated beta-alanine, “GSH” indicates reduced glutathione, “GS” indicates oxidized glutathione, “PEG” refers to polyethylene glycol, “PEG2” and “PEGS” refer to polyethylene glycol moieties of 2 kDa and 5 kDa, respectively, and “Mpa” refers to mercaptopropionic acid.
The day after, these cells were transfected with human CaSR receptor using lipofectamine 2000 transfection reagent 24 hrs post transfection, cells were seeded in 384 well plates at 8,000 cells/well. […] In some cases, EC50 values were determined by measuring inositol monophosphate production in the HEK293 cells, stably transfected with the human calcium-sensing receptor (see Table 1).
Cells were incubated with compounds at various concentrations (1 mM or 300 μM as the highest and further ½ log serial dilutions) at 37° C. for 1.5 hrs before reaction termination. […] In brief, incubation with the compound was terminated by sequentially adding D2 labeled-IP1 and cryptate-labeled anti-IP1 in lysis buffer and further incubating at room temperature for 60 minutes. […] Non-transfected 293 cells were used as negative control.
IP1 concentrations were calculated from standard curves (generated with Graph Pad Prism ver. 4) using known concentrations of IP1 standards.

plasma PTH [2] = test: 1K1C rat model of acute renal insufficiency, plasma PTH after dosing; assay type: in vivo; conditions: 1K1C rats, 3 mg/kg 30-minute IV infusion, FIG. 1
From the text: A rat model of acute renal insufficiency (also referred to as the 1K1C model) was developed to simulate the pathology of SHPT associated with end stage renal disease. […] The development of this model allowed for the further characterization of described compounds in the context of a subject with renal dysfunction and elevated PTH. Typical baseline PTH levels in this model averaged ˜450 pg/mL.
The ensuing ischemia/reperfusion (I/R) damage to the remaining kidney results in significant necrosis and renal failure. Serum creatinine levels were elevated for over 24-48 hours following I/R insult (data not shown). […] By 48 hours post-I/R, plasma PTH levels were elevated to ˜450 pg/mL (˜5 fold increase) and in some instances reach as high as ˜1200 pg/mL. This reproducible increase in serum creatinine and PTH provided a robust model that mimics the physiology seen ESRD patients.
The protocol used in this study is as follows. Male Sprague Dawley rats were purchased from Charles River Laboratories (Hollister, Calif.; requested purchase weight 250-275 g). […] Animals were maintained in a temperature-controlled environment with a constant 12 hours light/12 hours dark cycle and free access to food and water at all times. All experimental procedures with animals were performed according to IACUC guidelines.
General anesthesia was induced and maintained by intraperitoneal (IP) injection of sodium pentobarbital (5.2%, 0.4 mL/rat). For animals that received 45 minutes of renal ischemia an additional IP injection of sodium pentobarbital (5.2%, 0.1 mL/rat) was given to maintain the anesthetic plane. Blood sampling for PTH measurements following administration of compounds in normal rats was done under continuous isoflurane anesthesia.
For model development studies, the left femoral vein was cannulated with a PE-10 tube for blood drawing. Both kidneys were exposed via a laparotomy. A right nephrectomy was performed after the right renal pedicle and ureter were ligated with double 2-0 silk sutures. After confirmation of non-bleeding in the right pedicle, the left renal artery was carefully dissected and clamped with a micro vascular clip to induce left renal global ischemia. Renal ischemia was confirmed by observation of a global white-grey color change (blanching). The abdominal incision was temporarily covered with gauze to help maintain the temperature of the abdominal organs. After 45 minutes, the designated period of ischemia, the clip was removed and left renal artery flow was considered restored upon observation of a global restoration of red color. The abdominal incision was closed in layers with 2-0 silk sutures. The animal was then recovered from anesthesia. Physiological parameters including body temperature (36-37.5° C.) and body weight were measured throughout the procedure. Body temperature was monitored and maintained using a heat pad rectal probe feedback system.
Approximately 48 hours after the 1K1C surgery (I/R injury), animals were dosed with various compounds to measure effects on plasma PTH and calcium. In most cases, test articles were administered by IV infusion (infusion time 5, 10 or 30 minutes) although in some studies compounds were administered by IV bolus or subcutaneous (SC) bolus injection. For drug administration and blood draws, animals were anesthetized with isoflurane.

[3] = tested on: rat peritoneal mast cells; test: In vitro histamine induction in rat peritoneal mast cells; assay type: cell-based
How it was run: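 Mast cells from peritoneal lavage of Sprague Dawley rats were incubated with compound at 10 μM for 15 min at 37 °C in HBSS + 25 mM HEPES pH 7.4. Supernatant histamine measured by EIA; response expressed as fold change versus pre-incubation levels.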

plasma PTH [4] = test: In vivo PTH lowering after IV bolus in isoflurane-anesthetized normal Sprague Dawley rats; design: species or system rat; conditions: for % PTH reduction of baseline at 1 hour post IV admin. of 0.5 mg/kg compound / 0.5 mg/kg IV bolus % PTH AUC of saline control: Table 1; for % PTH reduction of baseline at 1 hour post IV admin. of 0.5 mg/kg compound: isoflurane-anesthetized normal rats, 0.5 mg/kg IV; for 0.5 mg/kg IV bolus % PTH AUC of saline control: PTH at 1, 2, 3, 4 h, AUCcmpd treated/AUCsaline control*100
How it was run: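 Peptides were given as a 0.5 mg/kg IV bolus to normal Sprague Dawley rats kept under isoflurane throughout, with saline bolus controls.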

[5] = Table 5, IP1 production in HEK293 cells expressing human CaSR, eight concentrations in duplicate, read-out: EC50 in CaSR in vitro assay
[6] = Table 1, IP1 in HEK293 cells expressing human CaSR, read-out: In vitro EC50

CC(=O)N[C@H](CS)C(=O)N[C@H](CCCNC(=N)N)C(=O)N[C@H](CCCNC(=N)N)C(=O)N[C@H](CCCNC(=N)N)C(=O)N[C@H](CCCNC(=N)N)C(=O)N[C@H](CCCNC(=N)N)C(N)=O [SEQ ID NO: 5, Ac-crrrrr-NH2] (Ac-[dC][dR][dR][dR][dR][dR]-NH2)
EC50 [1, 5]: 2.5 µM
mean PTH reduction at the 24 hour time point (plasma PTH [2]): 60%

CC(=O)N[C@H](CS)C(=O)N[C@H](CCCNC(=N)N)C(=O)N[C@H](CCCNC(=N)N)C(=O)N[C@H](CCCNC(=N)N)C(=O)N[C@H](C)C(=O)N[C@H](CCCNC(=N)N)C(=O)N[C@H](CCCNC(=N)N)C(N)=O [SEQ ID NO: 11, Ac-crrrarr-NH2] (Ac-[dC][dR][dR][dR][dA][dR][dR]-NH2)
EC50 [1, 6]: 5.9 µM
EC50 [1, 5]: 5.9 µM
Histamine in vitro Fold change of non-treated at 10 uM [3]: 5.0 fold
% PTH reduction of baseline at 1 hour post IV admin. of 0.5 mg/kg compound (plasma PTH [4]): 9%
0.5 mg/kg IV bolus % PTH AUC of saline control (plasma PTH [4]; normal rats): 45%

CC(=O)N[C@H](CS)C(=O)N[C@H](CCCNC(=N)N)C(=O)N[C@H](CCCNC(=N)N)C(=O)N[C@H](CCCNC(=N)N)C(=O)N[C@H](CCCNC(=N)N)C(=O)N[C@H](C)C(=O)N[C@H](CCCNC(=N)N)C(N)=O [SEQ ID NO: 12, Ac-crrrrar-NH2] (Ac-[dC][dR][dR][dR][dR][dA][dR]-NH2)
EC50 [1, 6]: 0.45 µM
EC50 [1, 5]: 0.45 µM
Histamine in vitro Fold change of non-treated at 10 uM [3]: 5.0 fold
duration of decreased PTH (plasma PTH [4]; 0.5 mg/kg IV bolus, normal rats, FIG. 5): at least four hours
% PTH reduction of baseline at 1 hour post IV admin. of 0.5 mg/kg compound (plasma PTH [4]): 3%
0.5 mg/kg IV bolus % PTH AUC of saline control (plasma PTH [4]; normal rats): 3%

CC(=O)N[C@H](CS)C(=O)N[C@H](CCCNC(=N)N)C(=O)N[C@H](CCCNC(=N)N)C(=O)N[C@H](CCCNC(=N)N)C(=O)N[C@H](CCCNC(=N)N)C(=O)N[C@H](CCCNC(=N)N)C(=O)N[C@H](C)C(N)=O [SEQ ID NO: 13, Ac-crrrrra-NH2] (Ac-[dC][dR][dR][dR][dR][dR][dA]-NH2)
EC50 [1, 6]: 1.1 µM
EC50 [1, 5]: 1.1 µM
Histamine in vitro Fold change of non-treated at 10 uM [3]: 4.1 fold
% PTH reduction of baseline at 1 hour post IV admin. of 0.5 mg/kg compound (plasma PTH [4]): 4%
0.5 mg/kg IV bolus % PTH AUC of saline control (plasma PTH [4]; normal rats): 28%
